For experiment [1], the target named is T1, human ALK2 R206H (Homo sapiens, UniProt Q04771, R206H).
T1 construct: expressed in transfected cells; host or cells: HEK293 (ATCC CRL1573), lentivirus transduction, blasticidin selection
T1 sequence (Q04771 21-509 R206H): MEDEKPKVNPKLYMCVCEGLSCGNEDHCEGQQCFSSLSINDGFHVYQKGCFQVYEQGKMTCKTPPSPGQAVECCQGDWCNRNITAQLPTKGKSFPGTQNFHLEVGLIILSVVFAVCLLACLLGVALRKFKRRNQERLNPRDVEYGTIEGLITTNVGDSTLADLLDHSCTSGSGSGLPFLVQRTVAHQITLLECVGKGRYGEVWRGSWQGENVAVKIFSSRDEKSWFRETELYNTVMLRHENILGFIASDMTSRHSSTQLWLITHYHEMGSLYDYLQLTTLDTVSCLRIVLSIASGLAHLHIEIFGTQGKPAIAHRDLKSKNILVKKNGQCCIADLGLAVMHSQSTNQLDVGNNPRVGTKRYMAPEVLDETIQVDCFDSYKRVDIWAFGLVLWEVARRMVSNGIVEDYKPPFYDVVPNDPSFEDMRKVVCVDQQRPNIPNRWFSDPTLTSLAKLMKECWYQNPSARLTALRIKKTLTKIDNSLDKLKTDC
Nature of the experiment: Cell-based ALK2-R206H cell activity assay (Smad1-Ser463/Ser465 phosphorylation by AlphaLISA in HEK293-ALK2-R206H cells). The following applies: read-out: Cell Line (Cell Assay IC50). How it is done: A HEK293 (ATCC, Cat^# CRL1573) based stable cell line expressing human ALK2 R206H cDNA (synthesized by GeneScript, Piscataway, N.J.) and a FLAG tag at the C-terminus was generated by lentivirus transduction and subsequent blasticidin (Life Technologies, Cat^#-A1113902) selection at 10 μg/ml for >2 wks. This cell line was named HEK293-ALK2-R206H.
Test compounds were first diluted to 4 mM or 0.4 mM and then serially diluted 3-fold into 10 different concentrations using DMSO. […] Two μl of the diluted compounds were then dispensed into the HEK293-ALK2-R206H cell-containing wells of the microplates in duplicates. In this way, each compound was tested in 10 doses (3-fold serial dilution with the top concentration being 10 μM or 1 μM). Liquid handling was achieved using a Bravo Automated Liquid Handling Platform (Agilent Technologies). DMSO without compound was used as a negative control. The positive control was 1 μM LDN193189, a known bone morphogenetic protein (BMP inhibitor).
The 10-point dose response curve was used to calculate the IC50 values.
Blank values in the table indicate that the particular compound was not tested in this assay.

The target in experiment [2] is T2, ALK2 R206H (GST-tagged mutant ALK2) (Homo sapiens, UniProt Q04771, R206H).
T2 construct: purchased Carna Bioscience or ThermoFisher 09-148 or PV6232
T2 sequence (Q04771 21-509 R206H): T1 sequence (Q04771 21-509 R206H)
As to the kind of experiment: ALK binding assay (LANTHASCREEN TR-FRET competitive binding, displacement of Kinase Tracer 178). The following applies: ALK2 R206H, LANTHASCREEN TR-FRET competitive binding; read-out: Binding Assay (IC50).

The IC50 is the concentration that inhibits the measured activity by half. For `O=C(C1CC1)N1CCN(c2ccnn3cc(-c4ccc(C5(O)CCOCC5)cc4)cc23)CC1` [Compound 172], the figures for the IC50 in experiment [1] and in experiment [2] were 100 to 500 nM and less than 10 nM, respectively.
Regarding `CCC(=O)N1CCN(c2ccnn3cc(-c4ccc(N5CCN(CC)CC5)cc4)cc23)CC1` [Compound 173], the IC50 in experiment [1] is greater than 500 nM; in experiment [2], 10 to 50 nM.
For the compound `O=C(C1CC1)N1CCN(c2ccnn3cc(-c4ccc(C5CCNCC5F)cc4)cc23)CC1` (centres unmarked) [Compound 174], the IC50 was 100 to 500 nM in experiment [1] and less than 10 nM in experiment [2].
`O=C(C1CC1)N1CCN(c2ccnn3cc(-c4ccc(C5(F)CCCNC5)cc4)cc23)CC1` (centres unmarked) [Compound 177]: the results for the IC50 in experiment [1] and in experiment [2] were less than 100 nM and less than 10 nM, respectively.
For `O=C(C1CC1)N1CCN(c2ccnn3cc(-c4ccc([C@@]5(F)CCCNC5)cc4)cc23)CC1` [Compound 178], the IC50 in experiment [1] was less than 100 nM; in experiment [2], less than 10 nM.
In the same order, the values of `O=C(C1CC1)N1CCN(c2ccnn3cc(-c4ccc([C@]5(F)CCCNC5)cc4)cc23)CC1` [Compound 179] are less than 100 nM and less than 10 nM.
Take `CCOC(=O)N1CCN(c2ccnn3cc(-c4ccc([C@H]5CCN(CC)C5)cc4)cc23)CC1` [Compound 181]: the values for the concentration for half-maximal inhibition (IC50) in experiment [1] and in experiment [2] were less than 100 nM and less than 10 nM, respectively.
On to `CCOC(=O)N1CCN(c2ccnn3cc(-c4ccc(C5CN(C(C)C)C5)cc4)cc23)CC1` [Compound 182], for which the values for the IC50 in experiment [1] and in experiment [2] were less than 100 nM and less than 10 nM, respectively.
In the same order, the values of `O=C([C@H]1C[C@@H]1F)N1CCN(c2ccnn3cc(-c4ccc(N5CCNCC5)cc4)cc23)CC1` [Compound 184] are less than 100 nM and less than 10 nM.
Taken in the same sequence, the figures for `O=C([C@H]1C[C@H]1F)N1CCN(c2ccnn3cc(-c4ccc(N5CCNCC5)cc4)cc23)CC1` [Compound 185] were less than 100 nM and less than 10 nM.
For `O=C([C@@H]1C[C@H]1F)N1CCN(c2ccnn3cc(-c4ccc(N5CCNCC5)nc4)cc23)CC1` [Compound 186], the values for the concentration for half-maximal inhibition (IC50) in experiment [1] and in experiment [2] were 100 to 500 nM and less than 10 nM, respectively.
Taken in the same sequence, the figures for `CC(C)N1CCc2cc(-c3cc4c(N5CCN(C(=O)C6CC6)CC5)ccnn4c3)sc2C1` [Compound 187] were less than 100 nM and less than 10 nM.
Taken in the same sequence, the figures for `CCNC(=O)N1CCN(c2ccnn3cc(-c4ccc([C@]5(F)CCCNC5)cc4)cc23)CC1` [Compound 188] were less than 100 nM and less than 10 nM.
For `CCNC(=O)N1CCN(c2ccnn3cc(-c4ccc([C@@]5(F)CCCNC5)cc4)cc23)CC1` [Compound 189], the half-maximal inhibitory concentration (IC50) in experiment [1] is less than 100 nM; in experiment [2] it was less than 10 nM.
Regarding `CC(C)N1CCc2nc(-c3cc4c(N5CCN(C(=O)C6CC6)CC5)ccnn4c3)sc2C1` [Compound 191], the IC50 was less than 100 nM in experiment [1] and less than 10 nM in experiment [2].
As to `CCNC(=O)N1CCN(c2ccnn3cc(-c4cc5c(s4)CN(C(C)C)CC5)cc23)CC1` [Compound 192], the IC50 in experiment [1] is less than 100 nM; in experiment [2], less than 10 nM.
Consider `CCNC(=O)N1CCN(c2ccnn3cc(-c4nc5c(s4)CN(C(C)C)CC5)cc23)CC1` [Compound 193], for which the concentration for half-maximal inhibition (IC50) in experiment [1] is less than 100 nM; in experiment [2] it was less than 10 nM.
Taken in the same sequence, the figures for `O=C(C1CC1)N1CCN(c2ccnn3cc(-c4cnn(C5CNCC(F)(F)C5)c4)cc23)CC1` (centres unmarked) [Compound 194, cyclopropyl(4-(6-(1-(5,5-difluoropiperidin-3-yl)-1H-pyrazol-4-yl)pyrrolo[1,2-b]pyridazin-4-yl)piperazin-1-yl)methanone] were 100 to 500 nM and 10 to 50 nM.
`N#C[C@H]1C[C@@H]1C(=O)N1CCN(c2ccnn3cc(-c4ccc(C5CNCCO5)cc4)cc23)CC1` (some centres unmarked) [Compound 195]: the figures for the half-inhibitory concentration (IC50) in experiment [1] and in experiment [2] were less than 100 nM and less than 10 nM, respectively.
On to `O=C(C1CC1)N1CCN(c2ccnn3cc(-c4ccc(N5CCN6CCC6C5)cc4)cc23)CC1` (centres unmarked) [Compound 196], for which the IC50 in experiment [1] was 100 to 500 nM; in experiment [2], less than 10 nM.
In the same order, the values of `O=C(C1CC1)N1CCN(c2ccnn3cc(-c4ccc(N5CC6(CCNC6)C5)cc4)cc23)CC1` [Compound 197] are 100 to 500 nM and 10 to 50 nM.
As for `C[C@@H]1CN(c2ccnn3cc(-c4ccc(N5CCNCC5)cc4)cc23)CCN1C(=O)CCC#N` [Compound 199], the IC50 in experiment [1] is less than 100 nM; in experiment [2], less than 10 nM.
Turning to `CCN1CCC(c2ccc(-c3cc4c(N5CCN(C(=O)C6CC6)CC5)ccnn4c3)cc2)CC1` [Compound 200], the results for the IC50 in experiment [1] and in experiment [2] were less than 100 nM and less than 10 nM, respectively.
For `CC(C)N1CCC(c2ccc(-c3cc4c(N5CCN(C(=O)C6CC6)CC5)ccnn4c3)cc2)C1` (centres unmarked) [Compound 201], the concentration for half-maximal inhibition (IC50) in experiment [1] was less than 100 nM; in experiment [2], less than 10 nM.
Taken in the same sequence, the figures for `CCN1CCCC(c2ccc(-c3cc4c(N5CCN(C(=O)C6CC6)CC5)ccnn4c3)cc2)C1` (centres unmarked) [Compound 202] were less than 100 nM and less than 10 nM.
For the compound `CC(C)N1CC[C@@H](c2ccc(-c3cc4c(N5CCN(C(=O)C6CC6)CC5)ccnn4c3)cc2)C1` [Compound 203], the half-maximal inhibitory concentration (IC50) in experiment [1] is less than 100 nM; in experiment [2] it was less than 10 nM.
For `CC(C)N1CC[C@H](c2ccc(-c3cc4c(N5CCN(C(=O)C6CC6)CC5)ccnn4c3)cc2)C1` [Compound 204], the concentration for half-maximal inhibition (IC50) is less than 100 nM in experiment [1] and less than 10 nM in experiment [2].
`CCN1CCC(c2ccc(-c3cc4c(N5CCN(C(=O)CC6CC6)CC5)ccnn4c3)cc2)C1` (centres unmarked) [Compound 205]: the concentration for half-maximal inhibition (IC50) in experiment [1] is 100 to 500 nM; in experiment [2] it was 10 to 50 nM.
In the same order, the values of `CCN1CCC[C@H](c2ccc(-c3cc4c(N5CCN(C(=O)C6CC6)CC5)ccnn4c3)cc2)C1` [Compound 207] are less than 100 nM and less than 10 nM.
For the compound `CCN1CCC(c2ccc(-c3cc4c(N5CCN(C(=O)[C@H]6C[C@@H]6C)CC5)ccnn4c3)cc2)C1` (some centres unmarked) [Compound 208], the half-maximal inhibitory concentration (IC50) in experiment [1] is less than 100 nM; in experiment [2], less than 10 nM.
In the same order, the values of `CC(C)N1CCCC1c1ccc(-c2cc3c(N4CCN(C(=O)C5CC5)CC4)ccnn3c2)cc1` (centres unmarked) [Compound 209] are less than 100 nM and less than 10 nM.
Consider `CC(C)N1CCC[C@H]1c1ccc(-c2cc3c(N4CCN(C(=O)C5CC5)CC4)ccnn3c2)cc1` [Compound 210], for which the IC50 in experiment [1] is less than 100 nM; in experiment [2], less than 10 nM.
Take `CC(C)N1CCC[C@@H]1c1ccc(-c2cc3c(N4CCN(C(=O)C5CC5)CC4)ccnn3c2)cc1` [Compound 211]: the IC50 in experiment [1] is less than 100 nM; in experiment [2], less than 10 nM.
`CN1CCN(c2ccc(-c3cc4c(N5CCN(C(=O)C6CCC6)CC5)ccnn4c3)cc2)CC1` [Compound 212]: the values for the IC50 in experiment [1] and in experiment [2] were 100 to 500 nM and less than 10 nM, respectively.
In the case of `CCN1CCN(c2ccc(-c3cc4c(N5CCN(C(=O)C6CC6)CC5)ccnn4c3)cc2)CC1` [Compound 213], the IC50 in experiment [1] is less than 100 nM; in experiment [2], less than 10 nM.
On to `CCN1CCOC(c2ccc(-c3cc4c(N5CCN(C(=O)C6CC6)CC5)ccnn4c3)cc2)C1` (centres unmarked) [Compound 214, cyclopropyl(4-(6-(4-(4-ethylmorpholin-2-yl)phenyl)pyrrolo[1,2-b]pyridazin-4-yl)piperazin-1-yl)methanone], for which the results for the IC50 in experiment [1] and in experiment [2] were 100 to 500 nM and 10 to 50 nM, respectively.
With `CCN1CCC(Oc2ccc(-c3cc4c(N5CCN(C(=O)C6CC6)CC5)ccnn4c3)cc2)C1` (centres unmarked) [Compound 216], the IC50 in experiment [1] is less than 100 nM; in experiment [2] it was less than 10 nM.
For `CCN1CC(COc2ccc(-c3cc4c(N5CCN(C(=O)C6CC6)CC5)ccnn4c3)cc2)C1` [Compound 217], the results for the concentration for half-maximal inhibition (IC50) in experiment [1] and in experiment [2] were 100 to 500 nM and less than 10 nM, respectively.
Consider `CC(C)N1CC(O)(c2ccc(-c3cc4c(N5CCN(C(=O)C6CC6)CC5)ccnn4c3)cc2)C1` [Compound 219], for which the results for the IC50 in experiment [1] and in experiment [2] were less than 100 nM and less than 10 nM, respectively.
Consider `CCN1CCN(c2ccc(-c3cc4c(N5CCN(C(=O)C6CC6)CC5)ccnn4c3)cn2)CC1` [Compound 221], for which the values for the half-maximal inhibitory concentration (IC50) in experiment [1] and in experiment [2] were 100 to 500 nM and less than 10 nM, respectively.
`CCN1CCN(c2ccc(-c3cc4c(N5CCN(C(=O)C6CC6)CC5)ccnn4c3)nc2)CC1` [Compound 222]: the IC50 in experiment [1] was less than 100 nM; in experiment [2], less than 10 nM.
In the same order, the values of `CCN1CCN(c2ccc(-c3cc4c(N5CCN(C(=O)C(C)C)CC5)ccnn4c3)cc2)CC1` [Compound 223] are 100 to 500 nM and 10 to 50 nM.
In the case of `CCNC(=O)N1CCN(c2ccnn3cc(-c4ccc([C@@H]5CCN(C(C)C)C5)cc4)cc23)CC1` [Compound 224], the 50% inhibitory concentration (IC50) is less than 100 nM in experiment [1] and less than 10 nM in experiment [2].

The values above are taken from US10233186B2, “Inhibitors of activin receptor-like kinase” (BLUEPRINT MEDICINES CORPORATION, priority 2016, dated 2019).
